According to US12472272B2, “Radiolabelled compounds for diagnosis or treatment of prostate-specific membrane antigen- expressing cancer” (PROVINCIAL HEALTH SERVICES AUTHORITY, priority 2019, dated 2025):

Legend:
[1] = test system: PSMA-expressing LNCAP cancer xenografts; experiment: Biodistribution of ^68Ga-labeled PSMA-targeting tracers; assay type: in vivo, mice; conditions: 1 h post-injection
Protocol: (§1) Imaging and biodistribution experiments were performed using NODSCID 1L2RγKO male mice. Mice were anesthetized by inhalation with 2% isoflurane in oxygen, and implanted subcutaneously with 1×10^7 LNCaP cells behind left shoulder. Mice were imaged or used in biodistribution studies when the tumor grew up to reach 5-8 mm in diameter during 5-6 weeks.
(§2) PET imaging experiments were conducted using Siemens Inveon micro PET/CT scanner. Each tumor bearing mouse was injected 6-8 MBq of Ga-68 labeled tracer through the tail vein under anesthesia (2% isoflurane in oxygen). The mice were allowed to recover and roam freely in their cage. After 50 min, the mice were sedated again with 2% isoflurane in oxygen inhalation and positioned in the scanner. A 10-min CT scan was conducted first for localization and attenuation correction after segmentation for reconstructing the PET images. Then, a 10-min static PET imaging was performed to determined uptake in tumor and other organs. The mice were kept warm by a heating pad during acquisition. For imaging studies acquired at 3 h post-injection (p.i.), the mice were placed in the micro PET/CT scanner at 170 min p.i. Then, the CT acquisitions were conducted as described above, a 15-min static PET imaging was performed to determined uptake in tumor and other organs.
For biodistribution studies, the mice were injected with the radiotracer as described above. At predetermined time points (1 or 3 h for ^68Ga studies; 1, 4, 24, 72, or 120 h for ^177Lu studies), the mice was anesthetized with 2% isoflurane inhalation, and euthanized by CO2 inhalation. Blood was withdrawn immediately from the heart, and the organs/tissues of interest were collected. The collected organs/tissues were weighed and counted using a Perkin Elmer (Waltham, MA) Wizard2 2480 gamma counter. The uptake in each organ/tissue was normalized to the injected dose using a standard curve, and expressed as the percentage of the injected dose per gram of tissue (% ID/g).

LNCaP tumors = experiment: PET/CT imaging of ^68Ga-labeled tracers; assay type: in vivo, mice; conditions: FIG. 3
Protocol: as §1, §2

SMILES | Tissue (% ID/g): Adrenal glands [1] [% ID/g] | Tissue (% ID/g): Blood [1] [% ID/g] | Tissue (% ID/g): Bone [1] [% ID/g] | Tissue (% ID/g): Brain [1] [% ID/g] | Tissue (% ID/g): Fat [1] [% ID/g] | Tissue (% ID/g): Heart [1] [% ID/g] | Tissue (% ID/g): Intestine [1] [% ID/g] | Tissue (% ID/g): Kidneys [1] [% ID/g] | Tissue (% ID/g): Lacrimal [1] [% ID/g] | Tissue (% ID/g): Liver [1] [% ID/g] | Tissue (% ID/g): Lungs [1] [% ID/g] | Tissue (% ID/g): Muscle [1] [% ID/g] | Tissue (% ID/g): Pancreas [1] [% ID/g] | Tissue (% ID/g): Salivary [1] [% ID/g] | Tissue (% ID/g): Seminal [1] [% ID/g] | Tissue (% ID/g): Spleen [1] [% ID/g] | Tissue (% ID/g): Stomach [1] [% ID/g] | Tissue (% ID/g): Tail [1] [% ID/g] | Tissue (% ID/g): Testes [1] [% ID/g] | Tissue (% ID/g): Thyroid [1] [% ID/g] | also measured
CCCCCC[C@H](NC(=O)[C@H]1CC[C@H](CNC(=O)CN2CCN(CC(=O)[O-])CCN(CC(=O)[O-])CCN(CC(=O)[O-])CC2)CC1)C(=O)NCCCC[C@H](NC(=O)N[C@@H](CCC(=O)O)C(=O)O)C(=O)O.[68Ga+3] [^68Ga-HTK03026] | 1.84 ± 0.95 | 0.70 ± 0.19 | 0.54 ± 0.20 | 0.06 ± 0.02 | 0.45 ± 0.11 | 0.30 ± 0.06 | 0.29 ± 0.06 | 68.5 ± 28.2 | 1.33 ± 0.90 | 0.24 ± 0.06 | 0.82 ± 0.26 | 0.28 ± 0.13 | 0.71 ± 1.04 | 0.83 ± 0.22 | 0.43 ± 0.31 | 1.34 ± 0.54 | 0.10 ± 0.03 | 0.90 ± 0.56 | 0.35 ± 0.22 | 0.35 ± 0.08 | Tissue (% ID/g): Tumor [1]: 12.5 ± 2.90 % ID/g; Tissue (% ID/g): Urine [1]: 575 ± 245 % ID/g; tumor-to-background contrast ratio Tumor: Blood [1]: 18.6 ± 5.54; tumor-to-background contrast ratio Tumor: Muscle [1]: 52.8 ± 24.9; tumor-to-background contrast ratio Tumor: kidney [1]: 0.22 ± 0.15; Tissue (% ID/g): Tumor ([1]; listed as 68Ga-labeled HTK03026): ~13 % ID/g; uptake in PET/CT images (LNCaP tumors): higher uptake was observed in LNCap tumor xenografts, kidneys and urinary bladders
O=C([O-])CN1CCN(CC(=O)[O-])CCN(CC(=O)NC[C@H]2CC[C@H](C(=O)N[C@@H](Cc3ccc4cc5ccccc5cc4c3)C(=O)NCCCC[C@H](NC(=O)N[C@@H](CCC(=O)O)C(=O)O)C(=O)O)CC2)CCN(CC(=O)[O-])CC1.[68Ga+3] [^68Ga-HTK03027] | 3.55 ± 2.33 | 1.56 ± 0.57 | 0.70 ± 0.33 | 0.06 ± 0.03 | 1.03 ± 0.67 | 0.56 ± 0.24 | 0.44 ± 0.12 | 85.6 ± 73.5 | 1.00 ± 0.56 | 0.46 ± 0.10 | 1.66 ± 0.67 | 0.48 ± 0.37 | 0.57 ± 0.20 | 1.86 ± 0.91 | 10.6 ± 10.9 | 3.36 ± 2.54 | 0.17 ± 0.10 | 0.98 ± 0.38 | 0.56 ± 0.18 | 0.76 ± 0.33 | Tissue (% ID/g): Tumor [1]: 13.3 ± 5.44 % ID/g; Tissue (% ID/g): Urine [1]: 844 ± 645 % ID/g; tumor-to-background contrast ratio Tumor: Blood [1]: 8.57 ± 2.83; tumor-to-background contrast ratio Tumor: Muscle [1]: 35.0 ± 18.7; tumor-to-background contrast ratio Tumor: kidney [1]: 0.27 ± 0.20; Tissue (% ID/g): Tumor ([1]; listed as 68Ga-labeled HTK03027): ~13 % ID/g; uptake in PET/CT images (LNCaP tumors): higher uptake was observed in LNCap tumor xenografts, kidneys and urinary bladders
